Results: patent US12054463B2, “Radiolabeled microtubule imaging compounds and uses thereof” (The Trustees of Columbia University in the City of New York, priority 2017, dated 2024)

Legend:
[1] = molecular target: D1-D5; test: Affinity to brain targets (panel); type: binding
[2] = molecular target: NMDA; test: Affinity to brain targets (panel); type: binding
[3] = molecular target: Ca++ channel; test: Affinity to brain targets (panel); type: binding
[4] = molecular target: H1 (Homo sapiens, UniProt P35367); test: Affinity to brain targets (panel); type: binding; conditions: H1: histamine
[5] = molecular target: NT; test: Affinity to brain targets (panel); type: binding; conditions: NT: neurotrophin
[6] = molecular target: GABA; test: Affinity to brain targets (panel); type: binding
[7] = molecular target: α2A-2C; test: Affinity to brain targets (panel); type: binding
[8] = molecular target: α1A-1C; test: Affinity to brain targets (panel); type: binding
[9] = molecular target: DAT (Homo sapiens, UniProt Q01959); test: Affinity to brain targets (panel); type: binding; conditions: DAT: dopamine transporters
[10] = molecular target: Smoothened (Homo sapiens, UniProt Q99835); test: Affinity to brain targets (panel); type: binding
[11] = molecular target: H2 (Homo sapiens, UniProt P25021); test: Affinity to brain targets (panel); type: binding; conditions: H2: histamine
[12] = molecular target: NK; test: Affinity to brain targets (panel); type: binding; conditions: NK: neurokinin
[13] = molecular target: Adenosine; test: Affinity to brain targets (panel); type: binding; conditions: Adenosine (A)
[14] = molecular target: MOR (Homo sapiens, UniProt P35372); test: Affinity to brain targets (panel); type: binding; conditions: MOR: mu opioid receptor
[15] = references 12-14; cited from earlier work
[16] = molecular target: Na+ Channel; test: Affinity to brain targets (panel); type: binding
[17] = molecular target: CB1, CB2; test: Affinity to brain targets (panel); type: binding
[18] = molecular target: H3, H4; test: Affinity to brain targets (panel); type: binding; conditions: H3, H4: histamine
[19] = test system: tumor xenografts; conditions: references 12-14; cited from earlier work
[20] = molecular target: Sigma1 (Homo sapiens, UniProt Q99720); test: Affinity to brain targets (panel); type: binding
[21] = test system: MT; conditions: listed under MT; reference 12; cited from earlier work
[22] = molecular target: SERT (Homo sapiens, UniProt P31645); test: Affinity to brain targets (panel); type: binding; conditions: SERT: serotonin transporter
[23] = test system: panel of kinases; conditions: cited from earlier work
[24] = molecular target: M; test: Affinity to brain targets (panel); type: binding; conditions: M: muscarinic
[25] = molecular target: NOP (Homo sapiens, UniProt P41146); test: Affinity to brain targets (panel); type: binding
[26] = molecular target: KOR (Homo sapiens, UniProt P41145); test: Affinity to brain targets (panel); type: binding; conditions: KOR: kappa opioid receptors
[27] = molecular target: DOR (Homo sapiens, UniProt P41143); test: Affinity to brain targets (panel); type: binding; conditions: DOR: delta opioid receptors
[28] = molecular target: 5-HT1A-1E; test: Affinity to brain targets (panel); type: binding
[29] = molecular target: AMPA; test: Affinity to brain targets (panel); type: binding
[30] = molecular target: I; test: Affinity to brain targets (panel); type: binding
[31] = test system: Microtubule; conditions: MT; reference 12; cited from earlier work
[32] = molecular target: HERG (Homo sapiens, UniProt Q12809); test: Affinity to brain targets (panel); type: binding; conditions: HERG: human ether-a-go-go
[33] = molecular target: PKC; test: Affinity to brain targets (panel); type: binding; conditions: PKC: Protein kinase C
[34] = molecular target: Sigma2 (Homo sapiens, UniProt Q5BJF2); test: Affinity to brain targets (panel); type: binding; conditions: Sigma2 (Sigma 2)
[35] = molecular target: NET (Homo sapiens, UniProt P23975); test: Affinity to brain targets (panel); type: binding; conditions: NET: norepinephrine transporter
[36] = molecular target: EP; test: Affinity to brain targets (panel); type: binding; conditions: EP: prostanoid receptors
[37] = molecular target: β1-3; test: Affinity to brain targets (panel); type: binding
[38] = molecular target: PBR (Homo sapiens, UniProt P30536); test: Affinity to brain targets (panel); type: binding
[39] = molecular target: BZP; test: Affinity to brain targets (panel); type: binding; conditions: BZP: benzodiazepine
[40] = molecular target: MDR1 (Homo sapiens, UniProt P08183); test: Affinity to brain targets (panel); type: binding; conditions: MDR1: multidrug resistance
[41] = molecular target: VMAT; test: Affinity to brain targets (panel); type: binding; conditions: VMAT (VMAT 1,2): vesicular monoamine transporter
[42] = molecular target: 5-HT3-7; test: Affinity to brain targets (panel); type: binding
[43] = molecular target: 5-HT2A-2C; test: Affinity to brain targets (panel); type: binding
[44] = molecular target: mGluR; test: Affinity to brain targets (panel); type: binding; conditions: mGluR (mGluRs): metabotropic glutamate receptors
[45] = molecular target: KA; test: Affinity to brain targets (panel); type: binding; conditions: KA (KAR): Kainate
[46] = molecular target: T1, Oxytocin (Homo sapiens, UniProt P30559); test: Affinity to brain targets (panel); type: binding
T1 sequence (P30559 1-389): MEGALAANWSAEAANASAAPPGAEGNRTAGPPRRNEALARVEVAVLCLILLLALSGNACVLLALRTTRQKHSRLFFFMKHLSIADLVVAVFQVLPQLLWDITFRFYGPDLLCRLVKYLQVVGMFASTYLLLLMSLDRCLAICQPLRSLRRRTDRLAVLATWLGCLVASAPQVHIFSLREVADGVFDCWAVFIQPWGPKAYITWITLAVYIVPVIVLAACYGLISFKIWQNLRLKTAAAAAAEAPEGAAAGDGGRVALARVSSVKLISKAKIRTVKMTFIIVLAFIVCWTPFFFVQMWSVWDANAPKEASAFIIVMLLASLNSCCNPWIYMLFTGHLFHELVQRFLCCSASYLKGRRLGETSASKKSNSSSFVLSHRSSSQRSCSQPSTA

Sequence of DOR (P41143 whole entry): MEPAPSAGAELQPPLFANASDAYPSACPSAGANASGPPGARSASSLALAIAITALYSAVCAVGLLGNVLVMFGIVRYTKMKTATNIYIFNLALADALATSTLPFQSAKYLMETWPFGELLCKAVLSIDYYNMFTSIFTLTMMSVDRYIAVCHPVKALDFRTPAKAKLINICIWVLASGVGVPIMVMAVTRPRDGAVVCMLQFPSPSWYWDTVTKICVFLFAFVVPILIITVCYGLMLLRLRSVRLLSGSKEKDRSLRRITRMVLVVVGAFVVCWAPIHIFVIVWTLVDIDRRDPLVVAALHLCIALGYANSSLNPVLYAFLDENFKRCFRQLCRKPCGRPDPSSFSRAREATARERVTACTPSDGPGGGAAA
Sequence of Sigma1 (Q99720 whole entry): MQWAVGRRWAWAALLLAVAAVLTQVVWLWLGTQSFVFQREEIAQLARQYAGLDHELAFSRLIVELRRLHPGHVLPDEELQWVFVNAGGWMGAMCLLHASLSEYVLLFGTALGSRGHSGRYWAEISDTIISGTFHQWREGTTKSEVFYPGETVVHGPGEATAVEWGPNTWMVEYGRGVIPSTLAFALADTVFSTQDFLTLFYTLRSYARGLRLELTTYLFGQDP
Sequence of Sigma2 (Q5BJF2 whole entry): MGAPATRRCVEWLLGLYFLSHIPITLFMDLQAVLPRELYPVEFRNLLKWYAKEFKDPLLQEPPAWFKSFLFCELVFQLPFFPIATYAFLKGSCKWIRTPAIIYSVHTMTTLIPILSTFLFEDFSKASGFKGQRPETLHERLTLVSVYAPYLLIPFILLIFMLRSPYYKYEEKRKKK
Sequence of SERT (P31645 whole entry, species assumed): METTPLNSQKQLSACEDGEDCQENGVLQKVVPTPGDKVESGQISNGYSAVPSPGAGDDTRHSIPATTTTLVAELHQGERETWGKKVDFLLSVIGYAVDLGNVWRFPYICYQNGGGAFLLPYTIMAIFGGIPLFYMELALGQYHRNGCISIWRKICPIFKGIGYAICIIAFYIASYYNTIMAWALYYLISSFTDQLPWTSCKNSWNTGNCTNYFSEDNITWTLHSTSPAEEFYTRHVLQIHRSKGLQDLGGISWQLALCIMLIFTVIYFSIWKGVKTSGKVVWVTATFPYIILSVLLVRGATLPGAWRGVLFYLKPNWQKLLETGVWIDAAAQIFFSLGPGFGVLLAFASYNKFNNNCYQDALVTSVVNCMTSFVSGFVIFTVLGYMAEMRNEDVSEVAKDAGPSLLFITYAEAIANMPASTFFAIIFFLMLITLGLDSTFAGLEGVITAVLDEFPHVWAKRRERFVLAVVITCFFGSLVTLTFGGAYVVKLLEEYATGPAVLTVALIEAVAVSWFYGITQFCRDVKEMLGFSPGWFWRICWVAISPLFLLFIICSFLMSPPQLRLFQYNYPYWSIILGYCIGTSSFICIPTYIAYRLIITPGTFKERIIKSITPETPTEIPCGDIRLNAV
Sequence of H1 (P35367 whole entry): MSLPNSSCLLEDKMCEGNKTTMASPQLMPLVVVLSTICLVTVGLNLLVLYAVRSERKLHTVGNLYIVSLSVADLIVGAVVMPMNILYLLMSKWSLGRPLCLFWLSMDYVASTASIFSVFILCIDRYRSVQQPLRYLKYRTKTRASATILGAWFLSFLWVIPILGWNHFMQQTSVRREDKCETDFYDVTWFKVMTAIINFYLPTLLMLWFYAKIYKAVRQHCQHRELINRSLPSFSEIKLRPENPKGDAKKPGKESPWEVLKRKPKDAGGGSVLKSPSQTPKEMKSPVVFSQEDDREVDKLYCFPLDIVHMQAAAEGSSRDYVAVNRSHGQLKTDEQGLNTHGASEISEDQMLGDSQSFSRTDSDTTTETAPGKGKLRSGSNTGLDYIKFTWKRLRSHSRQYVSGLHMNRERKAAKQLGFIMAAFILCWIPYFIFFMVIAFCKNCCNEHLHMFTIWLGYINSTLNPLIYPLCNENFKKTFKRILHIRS
Sequence of MDR1 (P08183 whole entry, species assumed): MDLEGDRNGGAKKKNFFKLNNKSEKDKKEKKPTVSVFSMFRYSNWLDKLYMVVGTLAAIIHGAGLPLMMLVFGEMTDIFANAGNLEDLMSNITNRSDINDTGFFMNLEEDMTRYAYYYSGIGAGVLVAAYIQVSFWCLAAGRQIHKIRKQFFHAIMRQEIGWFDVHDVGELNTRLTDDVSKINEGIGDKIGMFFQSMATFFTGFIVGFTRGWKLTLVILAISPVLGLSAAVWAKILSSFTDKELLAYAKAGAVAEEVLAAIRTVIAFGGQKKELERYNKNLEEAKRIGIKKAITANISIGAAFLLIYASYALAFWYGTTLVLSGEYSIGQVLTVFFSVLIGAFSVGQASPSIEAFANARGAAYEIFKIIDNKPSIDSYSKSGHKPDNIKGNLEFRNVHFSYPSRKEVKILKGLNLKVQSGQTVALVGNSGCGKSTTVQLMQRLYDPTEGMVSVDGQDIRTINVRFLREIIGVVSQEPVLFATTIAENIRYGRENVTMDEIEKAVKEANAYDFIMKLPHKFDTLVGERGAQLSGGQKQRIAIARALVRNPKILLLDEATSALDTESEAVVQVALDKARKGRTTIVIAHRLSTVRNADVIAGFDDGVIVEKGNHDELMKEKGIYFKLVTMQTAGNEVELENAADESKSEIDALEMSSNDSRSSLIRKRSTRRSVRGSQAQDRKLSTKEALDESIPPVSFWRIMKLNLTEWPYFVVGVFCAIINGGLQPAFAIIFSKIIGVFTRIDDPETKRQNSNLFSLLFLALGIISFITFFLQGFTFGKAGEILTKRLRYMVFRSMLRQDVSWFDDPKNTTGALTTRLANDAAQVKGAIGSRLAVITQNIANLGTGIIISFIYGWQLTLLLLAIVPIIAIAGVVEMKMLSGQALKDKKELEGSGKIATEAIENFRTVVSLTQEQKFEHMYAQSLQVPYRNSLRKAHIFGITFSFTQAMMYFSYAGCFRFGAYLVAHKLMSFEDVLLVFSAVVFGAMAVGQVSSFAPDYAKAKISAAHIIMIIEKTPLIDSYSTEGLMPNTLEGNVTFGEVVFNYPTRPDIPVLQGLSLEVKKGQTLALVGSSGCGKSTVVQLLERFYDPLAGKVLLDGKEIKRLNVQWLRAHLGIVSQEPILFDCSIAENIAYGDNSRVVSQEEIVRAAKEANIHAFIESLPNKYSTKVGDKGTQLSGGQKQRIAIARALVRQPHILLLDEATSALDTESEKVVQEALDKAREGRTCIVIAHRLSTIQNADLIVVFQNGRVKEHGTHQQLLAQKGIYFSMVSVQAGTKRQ
Sequence of HERG (Q12809 whole entry): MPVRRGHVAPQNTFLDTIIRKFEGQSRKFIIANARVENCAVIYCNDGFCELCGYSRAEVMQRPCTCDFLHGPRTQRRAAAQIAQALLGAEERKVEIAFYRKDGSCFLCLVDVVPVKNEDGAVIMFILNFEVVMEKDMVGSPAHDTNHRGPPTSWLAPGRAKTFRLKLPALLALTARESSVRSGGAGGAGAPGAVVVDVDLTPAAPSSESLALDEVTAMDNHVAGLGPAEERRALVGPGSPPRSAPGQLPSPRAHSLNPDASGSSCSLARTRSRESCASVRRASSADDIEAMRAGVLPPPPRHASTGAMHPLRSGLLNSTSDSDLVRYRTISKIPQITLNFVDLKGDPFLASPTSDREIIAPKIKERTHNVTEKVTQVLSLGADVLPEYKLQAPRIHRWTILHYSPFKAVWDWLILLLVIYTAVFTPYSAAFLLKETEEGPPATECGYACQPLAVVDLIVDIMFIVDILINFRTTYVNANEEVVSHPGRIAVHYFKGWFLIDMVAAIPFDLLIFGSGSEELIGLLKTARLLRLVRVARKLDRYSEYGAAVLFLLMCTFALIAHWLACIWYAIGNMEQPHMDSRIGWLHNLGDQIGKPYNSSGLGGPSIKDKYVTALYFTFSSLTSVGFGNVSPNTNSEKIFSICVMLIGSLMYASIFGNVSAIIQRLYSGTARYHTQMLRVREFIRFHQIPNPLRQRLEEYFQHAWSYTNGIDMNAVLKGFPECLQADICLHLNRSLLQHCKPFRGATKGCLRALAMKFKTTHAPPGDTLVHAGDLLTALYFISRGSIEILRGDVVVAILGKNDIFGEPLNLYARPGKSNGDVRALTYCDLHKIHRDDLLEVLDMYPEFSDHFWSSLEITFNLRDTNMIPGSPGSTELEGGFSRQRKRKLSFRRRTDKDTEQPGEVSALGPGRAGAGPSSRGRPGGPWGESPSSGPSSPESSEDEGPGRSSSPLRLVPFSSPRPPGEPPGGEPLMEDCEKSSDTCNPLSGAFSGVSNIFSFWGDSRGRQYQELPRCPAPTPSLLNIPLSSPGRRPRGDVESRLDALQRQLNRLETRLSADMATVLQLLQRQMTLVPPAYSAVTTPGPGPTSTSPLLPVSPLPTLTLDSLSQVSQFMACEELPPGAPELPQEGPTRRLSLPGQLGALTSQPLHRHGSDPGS
Sequence of DAT (Q01959 whole entry, species assumed): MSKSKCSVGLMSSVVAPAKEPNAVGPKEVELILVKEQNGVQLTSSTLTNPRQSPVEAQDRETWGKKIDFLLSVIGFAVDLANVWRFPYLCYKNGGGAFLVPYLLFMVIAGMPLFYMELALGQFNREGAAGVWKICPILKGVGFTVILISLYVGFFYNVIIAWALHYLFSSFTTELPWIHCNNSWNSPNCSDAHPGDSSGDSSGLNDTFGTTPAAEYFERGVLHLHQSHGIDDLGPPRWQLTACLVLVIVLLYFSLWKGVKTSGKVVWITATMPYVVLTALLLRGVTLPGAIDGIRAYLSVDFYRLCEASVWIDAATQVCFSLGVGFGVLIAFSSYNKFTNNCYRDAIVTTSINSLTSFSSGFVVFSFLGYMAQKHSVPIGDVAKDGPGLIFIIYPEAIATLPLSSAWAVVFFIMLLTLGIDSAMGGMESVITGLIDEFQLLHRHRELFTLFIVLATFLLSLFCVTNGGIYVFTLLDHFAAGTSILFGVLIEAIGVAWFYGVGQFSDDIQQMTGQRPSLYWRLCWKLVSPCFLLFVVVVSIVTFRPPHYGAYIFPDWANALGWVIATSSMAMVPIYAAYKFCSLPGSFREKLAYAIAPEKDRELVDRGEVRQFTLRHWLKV

**Q.** For COc1ccc(N(C)c2ncnc3occ(C)c23)cc1 [HD-800, reference compound], which Ki [1] is on record?
**A.** The Ki was over 10 µM.

**Q.** What about the Ki [2] of the same molecule?
**A.** Its Ki is over 10 µM.

**Q.** And the Ki [3]?
**A.** The Ki was over 10 µM.

**Q.** What about the Ki [4] of the same molecule?
**A.** Its Ki is over 10 µM.

**Q.** And the Ki [5]?
**A.** Its Ki is over 10 µM.

**Q.** And the Ki [6]?
**A.** Its Ki is over 10 µM.

**Q.** What about the Ki [7] of the same molecule?
**A.** The Ki was over 10 µM.

**Q.** What about the Ki [8] of the same molecule?
**A.** Its Ki is over 10 µM.

**Q.** And the Ki [9]?
**A.** Its Ki is over 10 µM.

**Q.** And the Ki [10]?
**A.** Its Ki is over 10 µM.

**Q.** What about the Ki [11] of the same molecule?
**A.** The Ki was over 10 µM.

**Q.** What about the Ki [12] of the same molecule?
**A.** The Ki was over 10 µM.

**Q.** What about the Ki [13] of the same molecule?
**A.** Its Ki is over 10 µM.

**Q.** What about the Ki [14] of the same molecule?
**A.** Its Ki is over 10 µM.

**Q.** And the BBB penetration [15]?
**A.** Its BBB penetration is “BBB penetrant”.

**Q.** What about the Ki [16] of the same molecule?
**A.** The Ki was over 10 µM.

**Q.** What about the Ki [17] of the same molecule?
**A.** Its Ki is over 10 µM.

**Q.** What about the Ki [18] of the same molecule?
**A.** Its Ki is over 10 µM.

**Q.** And the “tumor growth inhibition (TGI) compared with paclitaxel” value [19]?
**A.** The value was “higher tumor growth inhibition (TGI) than paclitaxel”.

**Q.** What about the Ki [20] of the same molecule?
**A.** The Ki was over 10 µM.

**Q.** And the GI50 [21]?
**A.** Its GI50 is under 10 nM.

**Q.** And the Ki [22]?
**A.** Its Ki is over 10 µM.

**Q.** And the “binding to a panel / variety of kinases” value [23]?
**A.** The value was “selective”.

**Q.** And the Ki [24]?
**A.** The Ki was over 10 µM.

**Q.** What about the Ki [25] of the same molecule?
**A.** The Ki was over 10 µM.

**Q.** What about the Ki [26] of the same molecule?
**A.** The Ki was over 10 µM.

**Q.** And the Ki [27]?
**A.** The Ki was over 10 µM.

**Q.** What about the Ki [28] of the same molecule?
**A.** Its Ki is over 10 µM.

**Q.** What about the Ki [29] of the same molecule?
**A.** Its Ki is over 10 µM.

**Q.** What about the Ki [30] of the same molecule?
**A.** The Ki was over 10 µM.

**Q.** And the IC50 [31]?
**A.** The IC50 was 3.2 nM.

**Q.** And the Ki [32]?
**A.** Its Ki is over 10 µM.

**Q.** And the Ki [33]?
**A.** Its Ki is over 10 µM.

**Q.** And the Ki [34]?
**A.** Its Ki is over 10 µM.

**Q.** And the Ki [35]?
**A.** The Ki was over 10 µM.

**Q.** And the Ki [36]?
**A.** The Ki was over 10 µM.

**Q.** What about the Ki [37] of the same molecule?
**A.** Its Ki is over 10 µM.

**Q.** What about the Ki [38] of the same molecule?
**A.** Its Ki is 2360 nM.

**Q.** And the Ki [39]?
**A.** Its Ki is over 10 µM.

**Q.** What about the Ki [40] of the same molecule?
**A.** The Ki was over 10 µM.

**Q.** And the Ki [41]?
**A.** Its Ki is over 10 µM.

**Q.** And the Ki [42]?
**A.** Its Ki is over 10 µM.

**Q.** What about the Ki [43] of the same molecule?
**A.** Its Ki is over 10 µM.

**Q.** What about the Ki [44] of the same molecule?
**A.** Its Ki is over 10 µM.

**Q.** What about the Ki [45] of the same molecule?
**A.** The Ki was over 10 µM.

**Q.** And the Ki [46]?
**A.** The Ki was over 10 µM.
